Molecules are shown by their SMILES. pIC50: −log10 of the molar value. “And” between values parts separate entries of the source, which are not always exact repeats. Equal entries are not always repeated. Where two headings read alike, the source gives them in different places.

The values below come from PMC5242352 (Iranian Journal of Pharmaceutical Research : IJPR, 2016).

The target in the experiment is Jack bean urease (Canavalia ensiformis, UniProt P07374). In words: Urease inhibition assay. Format: biochemical.
Chain of Jack bean urease (P07374 whole entry, looked up): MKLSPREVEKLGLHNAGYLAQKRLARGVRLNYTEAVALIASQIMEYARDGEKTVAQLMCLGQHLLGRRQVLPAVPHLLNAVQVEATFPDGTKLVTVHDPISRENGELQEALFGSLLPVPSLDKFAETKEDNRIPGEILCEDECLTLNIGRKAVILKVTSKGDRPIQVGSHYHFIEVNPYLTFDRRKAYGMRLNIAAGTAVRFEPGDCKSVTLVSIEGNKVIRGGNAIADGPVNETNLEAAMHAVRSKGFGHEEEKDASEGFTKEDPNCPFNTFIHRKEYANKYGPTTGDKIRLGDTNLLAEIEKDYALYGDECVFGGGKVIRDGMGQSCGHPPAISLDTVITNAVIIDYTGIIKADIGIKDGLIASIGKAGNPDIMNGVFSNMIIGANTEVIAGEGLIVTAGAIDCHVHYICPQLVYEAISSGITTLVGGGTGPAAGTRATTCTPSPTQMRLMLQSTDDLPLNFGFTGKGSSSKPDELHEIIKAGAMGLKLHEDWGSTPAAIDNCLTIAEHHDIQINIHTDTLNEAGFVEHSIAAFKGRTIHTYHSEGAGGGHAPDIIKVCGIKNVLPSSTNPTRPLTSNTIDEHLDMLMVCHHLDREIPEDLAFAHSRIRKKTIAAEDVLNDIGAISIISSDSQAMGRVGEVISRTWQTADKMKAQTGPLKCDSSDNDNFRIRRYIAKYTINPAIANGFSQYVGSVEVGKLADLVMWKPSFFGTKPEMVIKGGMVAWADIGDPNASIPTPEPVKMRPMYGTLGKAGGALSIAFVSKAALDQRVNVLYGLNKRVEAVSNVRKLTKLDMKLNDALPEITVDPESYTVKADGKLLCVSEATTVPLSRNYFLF

In general, pIC50 refers to −log10 of the IC50, conventionally taken in molar units. As for `CC1(C)CC(=O)C2=C(C1)Nc1[nH]c(=O)[nH]c(=O)c1C21C(=O)Nc2ccccc21` (centres unmarked) [7a, 8',8'-Dimethyl-8',9'-dihydro-1'H-spiro [indoline-3,5'-pyrimido[4,5-b]quinoline]-2,2',4', 6'(3'H,7'H,10'H)-tetraone], where the note is “IC50 (urease inhibitory activity), 37 °C, 30 minutes, read at 625 nm, triplicate”, the negative logarithm of the IC50 (pIC50) is 5.13 and 5.55.
For `NC(=O)NO` [hydroxyurea, reference compound], under “read-out: IC50 (urease inhibitory activity), 37 °C, 30 minutes, read at 625 nm, triplicate”, the pIC50 was 4.00.
